Values quoted from earlier work in patent US20060159724A1, “Nutritional supplement for the management of weight” (priority 2000, published 2006).
Where two headings read alike, the source gives them in different places.

Assays:
[1] = test system: obese subjects
[2] = area under glycemic response curve, 2-hour period after 50 g carbohydrate, divided by standard (white bread or glucose)
[3] = first 6-week period, no dietary restrictions

Row | Compound | decrease in carbohydrate intake [1, 3] | subjects with early satiety [1, 3] [%] | weight loss ([1]; obese subjects, 900 mg 5-HTP three times a day 30 minutes before meals, two 6-week periods, p<0.02 vs control arm) [%] | subjects with early satiety ([1]; second 6-week period, energy-restricted diet of 1,200 kcal) [%] | glycemic index (GI) [2]
1 | N[C@@H](Cc1c[nH]c2ccc(O)cc12)C(=O)O [5-HTP, 5-hydroxytryptophan] | about 50% | 100 | 5 | 90 | 
2 | O=C(CO)[C@@H](O)[C@H](O)[C@H](O)CO [Fructose, fructose] |  |  |  |  | 32
